In brackets after ≈: the same amount, converted by molar mass. Where two headings read alike, the source gives them in different places.
Assays:
Autotaxin (ATX) enzyme = Autotaxin (ATX) enzyme (Homo sapiens (Human), UniProt Q13822); assay: Autotaxin (ATX) enzyme activity inhibition assay (Cayman Autotaxin Inhibitor Screening Assay Kit); format: biochemical; conditions: OD405, 37° C., 30 min; read-out: IC50, inhibitory activity on ATX activity
Method: Subsequently, the 8 concentrations were diluted with Autotaxin Assay buffer (1×) provided in the kit into 19× compound working solutions (DMSO content was 1.9%). The Autotaxin Assay Reagent (10×) was taken out and diluted by 10 times with Autotaxin Assay Buffer (1×). The Autotaxin Substrate was taken out, dissolved by adding 1.2 mL of Autotaxin Assay Buffer (1×), mixed evenly and stood at room temperature.

[1] = Human liver microsome stability test; format: in vitro ADME; conditions: human liver microsomes; for Remaining percentage (%) of compound after incubation for 30 min: 37° C., NADPH; for half-life at 1 µM: human
Method: The human liver microsome stability test was performed by incubating the compound and human liver microsomes in vitro. First, the test compound is prepared as a 10 mM stock solution in DMSO solvent, and then the compound was diluted to 0.5 mM with acetonitrile. Human liver microsomes (Corning) were diluted with PBS and prepared as a microsome/buffer solution, which was used to dilute 0.5 mM of the compound into a working solution. […] A deep-well multiwell plate was taken, 30 μL of the working solution and 15 μL of pre-warmed NADPH solution (6 mM) were sequentially added to each well to initiate a reaction, and the reaction was incubated at 37° C. […] After centrifugation, the supernatant was collected, and added with purified water in a ratio of 1:1 to perform LC-MS/MS detection. […] T1/2 was calculated by using Excel.

[2] = biological target: hERG channels (CHO cell line stably expressing hERG) (Homo sapiens (Human), UniProt Q12809); assay: Inhibitory effect on hERG by full-automatic electrophysiological patch clamp QPatch; format: cell-based; conditions: for IC50: CHO hERG cells, QPatch; for hERG IC50/ATX IC50: ratio of hERG IC50 (μM) to ATX IC50 (nM)
hERG channels (CHO cell line stably expressing hERG), sequence (Q12809 whole entry): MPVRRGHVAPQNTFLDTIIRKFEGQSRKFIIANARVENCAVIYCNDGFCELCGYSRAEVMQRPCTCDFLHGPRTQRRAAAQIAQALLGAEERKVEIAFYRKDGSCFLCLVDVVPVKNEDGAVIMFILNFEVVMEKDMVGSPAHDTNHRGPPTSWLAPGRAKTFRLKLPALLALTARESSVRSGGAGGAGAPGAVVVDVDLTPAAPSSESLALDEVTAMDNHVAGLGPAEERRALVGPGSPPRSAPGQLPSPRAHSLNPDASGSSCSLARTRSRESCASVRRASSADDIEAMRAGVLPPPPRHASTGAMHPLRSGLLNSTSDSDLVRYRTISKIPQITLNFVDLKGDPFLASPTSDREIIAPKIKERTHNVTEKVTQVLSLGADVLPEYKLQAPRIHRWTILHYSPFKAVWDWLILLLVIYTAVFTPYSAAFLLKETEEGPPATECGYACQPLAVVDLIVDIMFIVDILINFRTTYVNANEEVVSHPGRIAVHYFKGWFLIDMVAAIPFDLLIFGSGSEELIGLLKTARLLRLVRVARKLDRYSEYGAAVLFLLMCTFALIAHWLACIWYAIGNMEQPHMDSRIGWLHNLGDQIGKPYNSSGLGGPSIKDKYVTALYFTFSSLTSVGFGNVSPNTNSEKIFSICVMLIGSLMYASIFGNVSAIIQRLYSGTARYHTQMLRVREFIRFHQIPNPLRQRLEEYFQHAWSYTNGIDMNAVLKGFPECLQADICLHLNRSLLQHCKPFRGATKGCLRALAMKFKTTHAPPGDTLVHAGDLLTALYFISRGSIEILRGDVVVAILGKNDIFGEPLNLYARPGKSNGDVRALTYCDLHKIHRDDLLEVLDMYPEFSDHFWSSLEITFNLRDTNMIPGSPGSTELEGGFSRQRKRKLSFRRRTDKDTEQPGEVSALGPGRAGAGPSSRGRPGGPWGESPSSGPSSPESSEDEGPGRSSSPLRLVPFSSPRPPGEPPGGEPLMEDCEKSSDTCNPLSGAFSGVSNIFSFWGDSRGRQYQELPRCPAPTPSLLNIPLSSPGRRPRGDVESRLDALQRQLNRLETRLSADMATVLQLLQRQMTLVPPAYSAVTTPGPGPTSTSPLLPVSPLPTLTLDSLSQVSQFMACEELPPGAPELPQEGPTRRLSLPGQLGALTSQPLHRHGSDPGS
Method: Full-automatic electrophysiological patch clamp QPatch was used to detect the inhibitory effect of compounds on hERG. Cells used in this test were CHO cell line transfected with cDNA of hERG and stably expressing hERG channels (provided by Sophion Bioscience, Denmark), and the cell passage number was P24. The cells were cultured in a medium containing the following components (all purchased from Invitrogen): Ham's F12 medium, inactivated fetal bovine serum (10% (v/v)), hygromycin B (100 μg/ml), and Geneticin (100 μg/ml). CHO hERG cells were grown in a petri dish containing the above-mentioned medium and cultured in an incubator at 37° C. and containing 5% Co2.
The compound to be tested was prepared as a 10 mM stock solution in DMSO solvent, the compound was diluted to 3 mM, 1 mM, 0.3 mM, and 0.1 mM with DMSO, and then the compound was diluted to 30 μM, 10 μM, 3 μM, 1 μM, 0.3 μM and 0.1 μM with the extracellular fluid, so that except that the final concentration of DMSO in the 30 μM compound was 0.3%, the final concentration of DMSO in compound solutions of all other concentrations was 0.1%.
The CHO hERG cells, after being digested and resuspended, were added to the fully automated QPatch system (Sophion, Denmark), and subjected to a test according to the following preset procedure.
After reaching the ruptured whole cell configuration state in the initial stage, the whole cell current was recorded at room temperature (about 25° C.), and the cells were recorded for at least 120 seconds in order to achieve stability. The stable cells were selected for the test. During the whole test, the cell patch clamp was at a voltage of −80 mV, the cell patch clamp voltage was depolarized to +20 mV to activate the hERG potassium channels, and after 2.5 seconds, the cell patch clamp voltage was at −50 mV to eliminate inactivation and generate outward tail current. The peak tail current was used as the value of the hERG current. The voltage mode described above was applied to the cells for electrophysiological tests every 15 seconds. An intracellular liquid containing 0.1% dimethyl sulfoxide (solvent) was added to the cells to establish a baseline, and then the current was allowed to stabilize for 3 min. After the compound solution was added, the cells were kept in the test environment until the effect of the compound reached a steady state or until reaching 4 min. In the test experiments with different concentration gradients of the compound, the compound was added to the clamped cells from low to high concentration. After the compound test was finished, the cells were washed with the extracellular fluid until the current returned to a stable state.
The test data were analyzed by Qpatch analysis software provided by Sophion, Excel, and Graphpad Prism.

[3] = Thermodynamic solubility test; format: physicochemical; conditions: for solubility: thermodynamic from solid
Method: The compound was accurately weighed, and the prepared phosphate buffer (pH 7.4), FeSSIF solution (pH 5.8) and FaSSGF solution (pH 1.6) were added to prepare a solution with a concentration of 4 mg/mL, which was shaken at 1,000 rpm for 1 hour, and then incubated overnight at room temperature. After the incubation, the solution was centrifuged at 12,000 rpm for 10 min to remove undissolved particles, and the supernatant was transferred to a new centrifuge tube. The supernatant was diluted appropriately, then added with an acetonitrile solution containing the internal standard, and quantified using a standard curve prepared with the same matrix.

[4] = Pharmacokinetic test in mice; format: in vivo, male ICR mice
Method: (§1) For the in vivo pharmacokinetic test of rats, 6 male SD rats were used, 180-240 g, fasted overnight. […] The blood samples were centrifuged at 8,000 rpm at 4° C. for 6 min, and plasma was collected and stored at −20° C. The plasma at each time point was taken and added with an acetonitrile solution containing internal standard in 3-5 times the amount, vortexed and mixed for 1 min, and centrifuged at 13,000 rpm at 4° C. for 10 min. The supernatant was collected, added and mixed with water in 3 times the amount. An appropriate amount of the mixture was taken for LC-MS/MS analysis. The main pharmacokinetic parameters were analyzed using WinNonlin 7.0 software with non-compartmental model.
For the in vivo pharmacokinetic test of mice, 18 male ICR mice were used, 20-25 g, fasted overnight. Among them, 9 mice were orally administered by gavage (10 mg/kg), bloods of 3 mice were collected at each blood collection time point, and the bloods of the 9 mice were alternately collected. The other 9 mice were intravenously administered with the compound (1 mg/kg), bloods of 3 mice were collected at each blood collection time point, and the bloods of the 9 mice were alternately collected. The rest operations were the same as that of pharmacokinetic test in rats.

[5] = Pharmacokinetic test in rats; format: in vivo, male SD rats
Method: as §1

[6] = biological target: ATX enzyme activity in human plasma (Homo sapiens (Human), UniProt Q13822); assay: Inhibition test of ATX enzyme activity in human plasma (LPA18:2 formation); format: biochemical; conditions: 37° C., 3 h
Method: Whole blood was collected from healthy volunteers and anticoagulated with heparin. The blood collection tubes were centrifuged at 3,000 rpm for 10 min, and the plasma was taken and stored at −80° C. for use.
The compound was serially diluted with DMSO according to the conventional concentration requirements, and then 3 μL of the diluted compound was added to a 96-well plate, and 147 μL of PBS was added to each well containing 3 μL of the compound. After mixing homogenously, 50 μL of the mixture was removed and added to a new 96-well plate. The human plasma was taken out from the −80° C. refrigerator and thawed through rapid shaking in a 37° C. water bath. 50 μL of the human plasma was taken and added to the 96-well plate containing 50 μL of the diluted compound (the final system was 1% DMSO). The group without the compound was set as the positive control group. The 96-well plate was shaken and mixed uniformly, and incubated at 37° C. for 3 h. A blank group was also provided, and the plasma of the blank group was stored at −80° C. The blank group is provided to determine the baseline concentration of endogenous LPA.
After the incubation was finished, the blank group was thawed on ice and transferred to an incubation plate. Excess acetonitrile containing the internal standard LPA17:0 was added to the incubation plate to precipitate the plasma protein. After vortex centrifugation, the supernatant was taken and diluted, and a peak area of LPA18:2 and a peak area of internal standard LPA17:0 were detected using LC-MSMS mass spectrometry.
According to the inhibition rates of different concentrations of the compound, the IC50 value of the compound, which is related to inhibition of ATX enzyme activity in human plasma, was calculated.

[7] = test system: idiopathic pulmonary fibrosis model (IPF model) induced by bleomycin; assay: IPF model induced by bleomycin in rats; format: in vivo, male BN rats; conditions: 30 mg/kg orally twice a day
Method: Using male BN rats, 180-240 g, idiopathic pulmonary fibrosis model (IPF model) was induced with a dose of 5 U/kg bleomycin. […] On the second day after the model was established, the animals were orally administered by gavage twice a day, where the administration group was administered with a dose of 30 mg/kg each time, and the solvent control group was administered with a blank solvent, and the administration continued for 21 days. During the administration, the body weight was weighed every three days. On day 21 of administration, alveolar lavage was conducted 2 h after the first administration, the inflammatory cells in the lavage fluid were counted, and the associated biomarkers in the supernatant of the lavage fluid were detected. After lavage, the left lungs of the rats were fixed, and stained with Masson's trichrome staining to score the fibrosis pathology. The remaining lung lobes were cryopreserved. The supernatant of the alveolar lavage fluid and the freshly frozen lung tissue of the three compound groups were taken and detected for a content of TGF-β1 protein and an amount of total protein by using ELISA, and the amount of TGF-β1 per milligram of total protein was calculated.

[8] = cited from earlier work; for probability of discontinuation due to serious adverse events: patients taking the drug, Maher et al. 2019
[9] = FaSSGF solution, fassgf or other biorelevant, FaSSGF, pH 1.6, thermodynamic, read-out: Dissolubility FaSSGF (pH 1.6)
[10] = FeSSIF solution, FeSSIF, pH 5.8, thermodynamic, read-out: Dissolubility FeSSIF (pH 5.8)
[11] = phosphate buffered saline, aqueous buffer, PBS, pH 7.4, thermodynamic, read-out: Dissolubility PBS (pH 7.4)
[12] = male, ICR, mouse, plasma, intravenous administration 1 mg/kg
[13] = male, ICR, mouse, plasma, oral administration by gavage 10 mg/kg
[14] = male, SD, rat, plasma, intravenous administration 1 mg/kg
[15] = male, SD, rat, plasma, oral administration by gavage 10 mg/kg
[16] = day 21, compared with solvent control group, FIG. 2
[17] = intravenous administration 1 mg/kg
[18] = oral administration by gavage 10 mg/kg

CC(OCCc1c[nH]nn1)C(=O)N1Cc2cnc(NC3Cc4ccccc4C3)nc2C1 (racemic) [Compound I-1, 2-(2-(1H-1,2,3-triazol-4-yl)ethoxy)-1-(2-((2,3-dihydro-1H-inden-2-yl)amino)-5,7-dihydro-6H-pyrrolo[3,4-d]pyrimidin-6-yl)propan-1-one]
IC50 (Autotaxin (ATX) enzyme): 4.24 nM | Remaining percentage (%) of compound after incubation for 30 min [1]: 87.4% | IC50 [2]: 22300 nM | hERG IC50/ATX IC50 [2]: 22.3/4.24 = 5.26

CC(Cc1cnn[nH]1)OCC(=O)N1Cc2cnc(NC3Cc4ccccc4C3)nc2C1 (racemic) [Compound I-2, 2-((1-(1H-1,2,3-triazol-5-yl)propan-2-yl)oxy)-1-(2-((2,3-dihydro-1H-inden-2-yl)amino)-5,7-dihydro-6H-pyrrolo[3,4-d]pyrimidin-6-yl)ethan-1-one]
IC50 (Autotaxin (ATX) enzyme): 1.35 nM

C[C@@H](OCCc1c[nH]nn1)C(=O)N1Cc2cnc(NC3Cc4ccccc4C3)nc2C1 [Compound I-1R, (R)-2-(2-(1H-1,2,3-triazol-4-yl)ethoxy)-1-(2-((2,3-dihydro-1H-inden-2-yl)amino)-5,7-dihydro-6H-pyrrolo[3,4-d]pyrimidin-6-yl)propan-1-one]
IC50 (Autotaxin (ATX) enzyme): 2.67 nM | Remaining percentage (%) of compound after incubation for 30 min [1]: 86.0% | half-life at 1 µM [1]: 123 min | IC50 [2]: 22000 nM | hERG IC50/ATX IC50 [2]: 22.0/2.67 = 8.24 | solubility [3, 9]: 88.5 µg/mL (≈ 211 µM) | solubility [3, 10]: 20.4 µg/mL (≈ 48.6 µM) | solubility [3, 11]: 20.4 µg/mL (≈ 48.6 µM) | AUC(0-t) [4, 12]: 495 ng·h/mL | clearance [4, 12]: 34.8 mL/min/kg | half-life [4, 12]: 22.2 min | Vd ([4]; male, ICR, mouse, plasma, intravenous administration 1 mg/kg, read-out: Vz): 1.05 L/kg | AUC(0-t) [4, 13]: 6120 ng·h/mL | Cmax [4, 13]: 6940 ng/mL | Tmax [4, 13]: 25.2 min | half-life [4, 13]: 40.2 min | AUC(0-t) [5, 14]: 828 ng·h/mL | clearance [5, 14]: 21.3 mL/min/kg | half-life [5, 14]: 25.8 min | Vd ([5]; male, SD, rat, plasma, intravenous administration 1 mg/kg, read-out: Vz): 0.76 L/kg | AUC(0-t) [5, 15]: 6330 ng·h/mL | Cmax [5, 15]: 3390 ng/mL | Tmax [5, 15]: 30 min | half-life [5, 15]: 151 min | IC50 [6]: 12 nM

C[C@H](OCCc1c[nH]nn1)C(=O)N1Cc2cnc(NC3Cc4ccccc4C3)nc2C1 [Compound I-1S, (S)-2-(2-(1H-1,2,3-triazol-4-yl)ethoxy)-1-(2-((2,3-dihydro-1H-inden-2-yl)amino)-5,7-dihydro-6H-pyrrolo[3,4-d]pyrimidin-6-yl)propan-1-one]
IC50 (Autotaxin (ATX) enzyme): 28.6 nM

C[C@H](Cc1cnn[nH]1)OCC(=O)N1Cc2cnc(NC3Cc4ccccc4C3)nc2C1 [Compound I-2R, (R)-2-((1-(1H-1,2,3-triazol-5-yl)propan-2-yl)oxy)-1-(2-((2,3-dihydro-1H-inden-2-yl)amino)-5,7-dihydro-6H-pyrrolo[3,4-d]pyrimidin-6-yl)ethan-1-one]
Remaining percentage (%) of compound after incubation for 30 min [1]: 63.7% | half-life at 1 µM [1]: 53.6 min | IC50 [2]: 9480 nM | hERG IC50/ATX IC50 [2]: 9.48/1.59 = 6.0 | solubility [3, 9]: 1040 µg/mL (≈ 2470 µM) | solubility [3, 10]: 260 µg/mL (≈ 620 µM) | solubility [3, 11]: 107 µg/mL (≈ 255 µM) | clearance rate (CL) relative to that of the control compound ([5]; fraction of control compound's CL): about ¼ | oral AUC0-t relative to that of the control compound ([5]; oral): 4.2 times | oral Cmax relative to that of the control compound ([5]; oral): 6.1 times | IC50 [6]: 4.73 nM | weight reduction of the animals ([7]; 21 days, compared with control compound group, FIG. 1): significantly less than that of the control compound group | content of TGF-β1 in the freshly frozen lung tissue [7, 16]: significantly lower than those of the solvent control group | content of TGF-β1 in the supernatant of the alveolar lavage fluid [7, 16]: significantly lower than those of the solvent control group

O=C(COCCc1cnn[nH]1)N1Cc2cnc(NC3Cc4ccccc4C3)nc2C1 [Control compound, reference compound]
T1/2 [1]: 24.1 min | Remaining percentage (%) of compound after incubation for 30 min [1]: 41.2% | Dissolubility FaSSGF (pH 1.6) ([3]; FaSSGF, pH 1.6, thermodynamic): 66.5 μg/mL | Dissolubility FeSSIF (pH 5.8) ([3]; FeSSIF, pH 5.8, thermodynamic): 18.3 μg/mL | Dissolubility PBS (pH 7.4) ([3]; PBS, pH 7.4, thermodynamic): 6.3 μg/mL | thermodynamic solubility (in words) ([3]; simulated gastric juice, simulated intestinal juice, neutral conditions): relatively poor | T1/2 [4, 17]: 20.4 min | T1/2 [4, 18]: 49.8 min | T1/2 [5, 17]: 27 min | T1/2 [5, 18]: 78.6 min

COC(=O)c1ccc2c(c1)NC(=O)/C2=C(\Nc1ccc(N(C)C(=O)CN2CCN(C)CC2)cc1)c1ccccc1 [Nintedanib]
probability of discontinuation due to serious adverse events [8]: 26.3% | incidence of gastrointestinal reactions ([8]; patients): ≤ 50%

Cc1ccc(=O)n(-c2ccccc2)c1 [Pirfenidone]
probability of discontinuation due to serious adverse events [8]: 20.9%

From patent US12221449B2, “Pyrrolopyrimidine derivative and use thereof” (WUHAN HUMANWELL INNOVATIVE DRUG RESEARCH AND DEVELOPMENT …, priority 2019, dated 2025)
